Where a SMILES comes first, the peptide text is derived from it.
Legend:
u-PAR = test: Western blot of u-PAR, HUVEC cells; type: cell-based, human; details: 20 μM
Protocol: FIG. 21: Effect of YSNSG (SEQ ID NO: 3) cyclopeptide on the expression of the u-PA receptor: u-PAR by HUVEC cells. The secretion of u-PAR was analyzed by Western blot (A) in a medium conditioned by HUVEC cells in the absence (control) or in the presence of 20 μM of the cyclopeptide YSNSG (SEQ ID NO: 3). Quantification was carried out using Bio 1D software (B);
The samples underwent 10% polyacrylamide gel electrophoresis in the presence of 0.1% SDS then were transferred onto Immobilon-P membranes (Millipore, St Quentin en Yvelines, France). The membranes were saturated with 5% freeze dried skimmed milk, Tween 20 0.1% in a 50 mM Tris-HCl, 150 mM NaCl buffer, pH 7.5 (TBS) for 2 hours at ambient temperature. The membranes were then incubated overnight at 4° C. with anti-MMP-14, anti-PAI-1 and anti-u-PAR antibodies then incubated for one hour at ambient temperature with a secondary antibody (anti-IgG) conjugated with peroxidase. The immune complexes were visualized with an ECL chemoluminescence detection kit.

phospho-FAK = test: Phospho-FAK immunolabelling, HUVEC cells; type: cell-based, human; details: 20 μM, 48 h
Protocol: FIG. 22: Effect of YSNSG (SEQ ID NO: 3) cyclopeptide on the organization of the cytoskeleton of HUVEC cells. The cells were cultivated on glass slides in the absence (control) or in the presence of 20 μM of YSNSG (SEQ ID NO: 3) cyclopeptide. After 48 h of incubation, the cells were fixed, permeabilized, incubated with phalloidin (A) or with an anti-Phospho-FAK antibody (B) then with Hoechst-33342. The slides were observed under a confocal microscope;
The cells were seeded onto sterile glass slides placed in 24-well plates (2×10^4 cells/well) in a suitable medium containing 5% serum in the presence or absence of YSNSG (SEQ ID NO: 3) cyclopeptide. After 24 and 48 hours incubation, the cells were fixed for 15 minutes in methanol. Three washes of 5 minutes in TBS-T were carried out, then the cells were incubated for 30 minutes at ambient temperature in a saturation solution (TBS-T containing 3% BSA). The cells were then incubated for 2 hours at ambient temperature in the presence of primary antibody diluted to 1/100 in TBS-T containing 3% BSA.

NC(=O)CC1NC(=O)C(CO)NC(=O)C(Cc2ccc(O)cc2)NC(=O)CNC(=O)C(CO)NC1=O (centres unmarked) [cyclopeptide YSNSG, cyclopeptide YSNSG (SEQ ID NO: 3)] (cyclo(GYSNS); configuration not given here)
reduction in the production of u-PAR (u-PAR): −49% | expression of the phosphorylated form of focal adhesion kinase (phospho-FAK) (phospho-FAK): reduction
